For the test, the system named is subcutaneous xenograft tumor of human colon cancer cell line HT-29. The test is described as follows: HT-29 subcutaneous xenograft, combined with irinotecan liposome injection. Format: in vivo, NU/NU mice. The conditions noted are these: compound 25 mg/kg intragastric + irinotecan liposome 10 mg/kg ip. The procedure:
7 Efficacy Test of the Compounds of the Present Disclosure Combined with Irinotecan Liposome Injection on Inhibiting the Growth of Subcutaneous Xenograft Tumor of Human Colon Cancer Cell Line HT-29
7.1 Experimental Animals: NU/NU Mice, SPF, Female, 20 to 30 g.
Irinotecan liposome injection (HE072), 43 mg: 10 mL, milky white liquid, batch No. B37191202, provided by Preparation Research Institute 2 from CSPC Zhongqi Pharmaceutical Technology (Shijiazhuang) Co., Ltd., diluted to an appropriate concentration with 5% glucose injection while testing.
HT-29 cell, provided by Nanjing Kebai Biotechnology Co., Ltd.; 5A culture medium:fetal bovine serum=90%:10%, 37° C., 5% CO2.
NU/NU nude mice were subcutaneously inoculated with HT-29 human colon cancer cells. When the mean tumor volume reached about 170 mm^3 (9 days after inoculation), the animals were evenly divided into groups according to the tumor volume (d0), with 6 mice in each group. 10 mg/kg of HE072 was administered intraperitoneally once a week for 1 time. Vehicle control, 25 mg/kg of A-6, 25 mg/kg of A-46, and 25 mg/kg of AZD1390 were administered intragastrically once a day, from Monday to Thursday every week except Friday to Sunday, for 1 week (4 times). The tumor volume was measured twice a week, the body weight of mouse was weighed every day, and the data were recorded. The tumor volume (TV) was calculated according to the formula: TV=½×a×b2, wherein a and b represent the long and short diameters of tumor, respectively. Tumor growth inhibitory rate TGI (%)=[1−(Ti−T0)/(Vi−V0)]×100, wherein Ti represents the mean tumor volume of a given treatment group on a certain day; TO represents the mean tumor volume of this treatment group at the beginning of administration; Vi represents the mean tumor volume of the vehicle control group on a certain day (the same day as that in Ti); V0 represents the mean tumor volume of the vehicle control group at the beginning of administration. At the end of the test (d17), the animals were sacrificed, the tumors were stripped and weighed, and the tumor weight inhibitory rates were calculated.

The structures appear in SMILES notation. Marks after values point to notes of the source that are not given here.

Take `CC(C)n1c(=O)n(C)c2cnc3cc(F)c(-c4ccc(OCCCN5CCCCC5)nc4)cc3c21` [AZD1390, reference compound]: where the note is “day 16”, the “D 16 TGI” value stood at 89.6% and the “D 16 TV (MEAN ± SD)” value is reported as 244.2 ± 192.8***^### mm^3. In addition, under “end of test”, the Tumor weight is reported as 0.18 ± 0.18 g and the “Tumor weight inhibitory rate” value is recorded as 74.7%.
